Assay results: patent US20180128815A1, “METHOD OF SCREENING AN AGENT FOR INHIBITING RECURRENCE OR METASTASIS OF BREAST CANCER” (GACHON UNIVERSITY OF INDUSTRY-ACADEMIC COOPERATION …, priority 2014, published 2018)

Tests used:
Format in all cases: cell-based
[1] = test system: 4T1 murine breast cancer cell line (suspending culture, cancer stem cells); assay: RTQ-PCR of stem cell marker genes in suspension-cultured 4T1 cells with or without Wnt signaling inhibitor; settings: 1 μM applied 4 times, once in two days, 8 days suspending culture
Description: Then, the 4T1 murine breast cancer cell line was added with a DMEM medium containing 20 ng/mL of EGF, 20 ng/mL of bFGF, 4 μg/mL of heparin, and B27, and cultured via suspending culture at 37° C. with […] for 7 days to obtain a culture product in a spherical form.
First, 4T1 murine breast cancer cell line was cultured via the suspending culturing method in the same manner as in Example 1-1 for 8 days under the condition of with or without the treatment of the Wnt signaling inhibitor (CWP232228, JW Pharmaceutical, Korea). In particular, the Wnt signaling inhibitor was applied a total of 4 times once in two days at a concentration of 1 μM.
Then, the thus obtained culture products were subjected to RNeasy Plus Mini Kit (Qiagen Inc, Valencia, Calif.) and the total RNA was extracted from each of the culture products. The thus-extracted each of the total RNA was subjected to random hexamer and ReverAid H Minus First Strand cDNA Synthesis Kit (Thermo scientific) to synthesize their respective cDNAs. […] The data obtained via RTQ-PCR was analyzed and, based on the 2-deltadelta ct values among the respective cells cultured, the genes with at least a 2-fold difference and a P value<0.05 were selected. […]

[2] = test system: 4T1 murine breast cancer cell line; assay: IGF1 immunofluorescence staining, 4T1 cells with or without Wnt signaling inhibitor
Description: (§1) In order to confirm the expression level of IGF1 gene, one of the five genes discovered above, within a cell, the 4T1 murine breast cancer cell line and MCF7 human breast cancer cell line were cultured via adhesion culture method and suspending culture method in the same manner as in Example 1 under the condition of with or without the treatment of the Wnt signaling inhibitor (CWP232228, JW Pharmaceutical, Korea) and thereby obtained the respective culture products.
(§2) The thus obtained respective culture products were added with mouse anti-IGF1 antibodies (Milipore, cat. #05-172) to perform a primary reaction, and then added with anti-mouse IgG antibodies (Invitrogen cat.A11001) to perform a secondary reaction, thereby performing an immunofluorescence staining regarding the IGF1 gene, which was observed under an optical microscope (Zeiss LSM 510) and the expression level of IGF1 was measured (FIG. 3).

[3] = test system: MCF7 human breast cancer cell line; assay: IGF1 immunofluorescence staining, MCF7 cells with or without Wnt signaling inhibitor
Description: as §1, §2

[4] = adhesion culture, regardless of treatment
[5] = suspending culture (cancer stem cells)

C=CCN1CC(=O)N2[C@@H](Cc3ccc(OP(=O)([O-])[O-])cc3)C(=O)N(Cc3cccc4cn(C)nc34)C[C@@H]2N1C(=O)NCc1ccccc1.[Na+].[Na+] [CWP232228]
difference in expression of IGF1, Id2, MMP2, MMP9 and Wnt5a genes (2-deltadelta ct, Stem cell PCR array) treated vs untreated ([1]; P value<0.05): ≥ 2 fold
expression of IGF1, Id2, MMP2, MMP9 and Wnt5a genes by RTQ-PCR with specific primers (FIG. 2) ([1]; treated vs untreated): significant difference in their expression
IGF1 gene expression (immunofluorescence, FIG. 3) [2, 4]: not expressed
level of IGF1 gene expression (immunofluorescence, FIG. 3) [2, 5]: deceased
IGF1 gene expression (immunofluorescence, FIG. 3) [3, 4]: not expressed
level of IGF1 gene expression (immunofluorescence, FIG. 3) [3, 5]: deceased
